Reference: PMC8776995 (Frontiers in Chemistry, 2022)
“And” between values parts separate entries of the source, which are not always exact repeats. Equal values may be shown once.

What was measured:
PC-9 cells = test: CCK-8 antiproliferation assay, PC-9; details: for Inhibitory efficacy: single repeats (Repeat 1-3), given as fraction
H460 cells = test: CCK-8 antiproliferation assay, H460; details: for Inhibitory efficacy: H460 cells
wild-type EGFR = wild-type EGFR (Homo sapiens, UniProt P00533); test: EGFR kinase assay (ELISA); details: for A450: raw ELISA absorbance
Sequence of wild-type EGFR (P00533 25-1210): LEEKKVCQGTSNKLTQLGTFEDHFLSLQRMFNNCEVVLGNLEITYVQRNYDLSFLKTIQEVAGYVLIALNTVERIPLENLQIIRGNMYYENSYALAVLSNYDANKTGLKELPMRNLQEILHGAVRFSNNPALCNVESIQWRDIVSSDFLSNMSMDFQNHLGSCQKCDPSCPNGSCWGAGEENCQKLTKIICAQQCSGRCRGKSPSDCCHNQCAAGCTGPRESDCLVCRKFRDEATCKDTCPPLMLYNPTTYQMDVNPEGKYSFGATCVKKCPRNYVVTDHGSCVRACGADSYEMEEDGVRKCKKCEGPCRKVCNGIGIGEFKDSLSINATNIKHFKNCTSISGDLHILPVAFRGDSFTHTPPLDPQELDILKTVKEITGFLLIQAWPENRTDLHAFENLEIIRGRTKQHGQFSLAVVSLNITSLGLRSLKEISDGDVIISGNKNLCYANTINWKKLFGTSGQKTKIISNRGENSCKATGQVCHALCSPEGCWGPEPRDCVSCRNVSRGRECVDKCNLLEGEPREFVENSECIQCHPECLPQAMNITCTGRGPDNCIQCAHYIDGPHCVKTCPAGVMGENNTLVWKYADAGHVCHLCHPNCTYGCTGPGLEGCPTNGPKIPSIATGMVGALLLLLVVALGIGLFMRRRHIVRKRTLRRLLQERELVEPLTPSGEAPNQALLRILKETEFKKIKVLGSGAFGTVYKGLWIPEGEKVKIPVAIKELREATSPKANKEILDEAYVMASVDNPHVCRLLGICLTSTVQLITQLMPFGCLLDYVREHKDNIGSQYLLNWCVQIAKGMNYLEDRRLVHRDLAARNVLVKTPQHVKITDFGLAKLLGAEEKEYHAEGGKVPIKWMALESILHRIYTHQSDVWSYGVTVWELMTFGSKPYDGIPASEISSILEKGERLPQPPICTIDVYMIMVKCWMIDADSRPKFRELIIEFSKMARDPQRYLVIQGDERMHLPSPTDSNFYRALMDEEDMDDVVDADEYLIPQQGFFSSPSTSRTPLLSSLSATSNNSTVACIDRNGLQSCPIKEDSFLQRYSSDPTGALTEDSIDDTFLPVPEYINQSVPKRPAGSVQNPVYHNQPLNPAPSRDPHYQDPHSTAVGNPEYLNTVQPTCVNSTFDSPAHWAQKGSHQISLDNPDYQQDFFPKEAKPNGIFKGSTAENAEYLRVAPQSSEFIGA

H1975 cells = test: CCK-8 antiproliferation assay, H1975; details: for Inhibitory efficacy: H1975 cells
A549 cells = test: CCK-8 antiproliferation assay, A549; details: for Inhibitory efficacy: A549 cells
[1] = 4uM, given as fraction, Repeat 1-3
[2] = 8uM, given as fraction, Repeat 1-3
[3] = 16uM, given as fraction, Repeat 1-3
[4] = 1uM, given as fraction, Repeat 1-3
[5] = 2uM, given as fraction, Repeat 1-3

`COCCOc1cc2ncnc(Nc3cccc(-c4cn(-c5cccc([N+](=O)[O-])c5)nn4)c3)c2cc1OCCOC` [e13, [6,7-Bis-(2-methoxy-ethoxy)-quinazolin-4-yl]-{3-[1-(3-nitro-phenyl)-1H-[1,2,3]triazol-4-yl]-phenyl}-amine] showed an IC50 (PC-9 cells; Homo sapiens, PC-9, 48 h, read-out: IC50 (μM) PC-9) of 22.6 ± 1.16 µM, an inhibition at 8 µM (PC-9 cells; Homo sapiens, PC-9, read-out: Inhibitory efficacy, PC-9, 8uM, single repeats (Repeat 1-3), given as fraction) of 12.1% and an inhibition at 16 µM (PC-9 cells; Homo sapiens, PC-9, read-out: Inhibitory efficacy, PC-9, 16uM, single repeats (Repeat 1-3), given as fraction) of 28.6%. The Inhibitory efficacy (PC-9 cells; PC-9, 8uM, 8 µM) was 0.1077 and 0.1459, the Inhibitory efficacy (PC-9 cells; PC-9, 16uM, 16 µM) was 0.2884 and 0.3336 and the Inhibitory efficacy (H460 cells; [1]) was 0.3261 and 0.3299. For the same compound, the Inhibitory efficacy (H460 cells; [2]) was 0.4209 and 0.401, the Inhibitory efficacy (H460 cells; [3]) was 0.4769 and 0.494 and the IC50 (H460 cells; Homo sapiens, NCI-H460, 48 h, read-out: IC50 (μM) H460, CCK-8, 48 h, average ± SD of three independent experiments) was 11.9 ± 3.63 µM. The inhibition at 4 µM (H460 cells; Homo sapiens, NCI-H460, read-out: Inhibitory efficacy, H460 cells, 4uM, given as fraction, Repeat 1-3) was 42.4%, the inhibition at 8 µM (H460 cells; Homo sapiens, NCI-H460, read-out: Inhibitory efficacy, H460 cells, 8uM, given as fraction, Repeat 1-3) was 54.8% and the inhibition at 16 µM (H460 cells; Homo sapiens, NCI-H460, read-out: Inhibitory efficacy, H460 cells, 16uM, given as fraction, Repeat 1-3) was 56.2%. For the same compound, the melting point was 98 to 101 °C, the IC50 (wild-type EGFR; IC50 (μM) EGFR, ELISA, 3 μmol/L ATP) was 4.74 µM and the inhibition at 100 fM (wild-type EGFR; concentration 0.0001 nM (reference for normalisation), one value per replicate column) was 0%. For the same compound, the Inhibition (wild-type EGFR; concentration 0.03 nM, one value per replicate column, 3e-05 µM) was 3.252, the Inhibition (wild-type EGFR; concentration 0.3 nM, one value per replicate column, 0.0003 µM) was 1.084 and 9.485 and the Inhibition (wild-type EGFR; concentration 3 nM, one value per replicate column, 0.003 µM) was 4.065 and 14.0921. The Inhibition (wild-type EGFR; concentration 30 nM, one value per replicate column, 0.03 µM) was 5.691 and 21.1382, the Inhibition (wild-type EGFR; concentration 300 nM, one value per replicate column, 0.3 µM) was 10.0271 and 28.9973 and the inhibition at 3 µM (wild-type EGFR; concentration 3000 nM, one value per replicate column) was 30.9%. The Inhibition (wild-type EGFR; concentration 3000 nM, one value per replicate column, 3 µM) was 29.5393, the A450 (wild-type EGFR; concentration 0.0001 nM) was 0.702 and 0.668 and the A450 (wild-type EGFR; concentration 0.03 nM) was 0.702 and 0.656. For the same compound, the A450 (wild-type EGFR; concentration 0.3 nM) was 0.698 and 0.633, the A450 (wild-type EGFR; concentration 3 nM) was 0.687 and 0.616 and the A450 (wild-type EGFR; concentration 30 nM) was 0.681 and 0.59. The A450 (wild-type EGFR; concentration 300 nM) was 0.665 and 0.561, the A450 (wild-type EGFR; concentration 3000 nM) was 0.588 and 0.559 and the A450 (wild-type EGFR; concentration 30000 nM) was 0.333 and 0.299. For the same compound, the Inhibitory efficacy (H1975 cells; [4]) was 0.09975 and 0.197, the Inhibitory efficacy (H1975 cells; [5]) was 0.1652 and 0.1521 and the Inhibitory efficacy (H1975 cells; [1]) was 0.1521 and 0.1128. The Inhibitory efficacy (H1975 cells; [2]) was 0.1633 and 0.2344, the Inhibitory efficacy (H1975 cells; [3]) was 0.1933 and 0.2774 and the IC50 (H1975 cells; Homo sapiens, NCI-H1975, 48 h, read-out: IC50 (μM) H1975, CCK-8, 48 h, average ± SD of three independent experiments) was greater than 100 µM. It also gave an inhibition at 1 µM (H1975 cells; Homo sapiens, NCI-H1975, read-out: Inhibitory efficacy, H1975 cells, 1uM, given as fraction, Repeat 1-3) of 14.3%, an inhibition at 2 µM (H1975 cells; Homo sapiens, NCI-H1975, read-out: Inhibitory efficacy, H1975 cells, 2uM, given as fraction, Repeat 1-3) of 25.5% and an inhibition at 4 µM (H1975 cells; Homo sapiens, NCI-H1975, read-out: Inhibitory efficacy, H1975 cells, 4uM, given as fraction, Repeat 1-3) of 15%. The inhibition at 8 µM (H1975 cells; Homo sapiens, NCI-H1975, read-out: Inhibitory efficacy, H1975 cells, 8uM, given as fraction, Repeat 1-3) was 24.2%, the inhibition at 16 µM (H1975 cells; Homo sapiens, NCI-H1975, read-out: Inhibitory efficacy, H1975 cells, 16uM, given as fraction, Repeat 1-3) was 21% and the Inhibitory efficacy (A549 cells; [4]) was 0.1588 and 0.1553. The Inhibitory efficacy (A549 cells; [5]) was 0.352 and 0.366, the Inhibitory efficacy (A549 cells; [1]) was 0.5268 and 0.5198 and the Inhibitory efficacy (A549 cells; [2]) was 0.5749 and 0.6133. The Inhibitory efficacy (A549 cells; [3]) was 0.6238 and 0.6256, the IC50 (A549 cells; Homo sapiens, A549, 48 h, read-out: IC50 (μM) A549, CCK-8, 48 h, average ± SD of three independent experiments) was 5.95 ± 1.47 µM and the inhibition at 1 µM (A549 cells; Homo sapiens, A549, read-out: Inhibitory efficacy, A549 cells, 1uM, given as fraction, Repeat 1-3) was 8.71%. For the same compound, the inhibition at 2 µM (A549 cells; Homo sapiens, A549, read-out: Inhibitory efficacy, A549 cells, 2uM, given as fraction, Repeat 1-3) was 36.9%, the inhibition at 4 µM (A549 cells; Homo sapiens, A549, read-out: Inhibitory efficacy, A549 cells, 4uM, given as fraction, Repeat 1-3) was 44.6% and the inhibition at 8 µM (A549 cells; Homo sapiens, A549, read-out: Inhibitory efficacy, A549 cells, 8uM, given as fraction, Repeat 1-3) was 51.1%. The inhibition at 16 µM (A549 cells; Homo sapiens, A549, read-out: Inhibitory efficacy, A549 cells, 16uM, given as fraction, Repeat 1-3) was 56.8%.
